Source: PubChem BioAssay (NCI)
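Five compound concentrations were applied to cells in 96-well plates for 48 hours; endpoints were derived by simple linear interpolation of the resulting dose-response curve. Here, GI50 denotes the concentration required for 50% inhibition of growth. Definition used: TGI = concentration required for complete inhibition of growth.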

How the values were obtained:
Test in all cases: growth of human tumour cells (NCI), 48 h
UO-31 renal = system: UO-31 renal
HCT-116 colon = system: HCT-116 colon
MALME-3M melanoma = system: MALME-3M melanoma
K-562 leukemia = system: K-562 leukemia
COLO 205 colon = system: COLO 205 colon
SR leukemia = system: SR leukemia
NCI-H226 lung = system: NCI-H226 lung
CAKI-1 renal = system: CAKI-1 renal
NCI/ADR-RES ovarian = system: NCI/ADR-RES ovarian
OVCAR-3 ovarian = system: OVCAR-3 ovarian

O=C1/C(=C/c2ccc(O)cc2)CCC1CNc1ccc(Cl)cc1 (stereo not given)
TGI (UO-31 renal): 9.82 µM
TGI (HCT-116 colon): 5.77 µM
TGI (MALME-3M melanoma): 8.57 µM
TGI (K-562 leukemia): 10.2 µM
TGI (COLO 205 colon): 3.24 µM
TGI (SR leukemia): 5.51 µM
TGI (NCI-H226 lung): 25.8 µM
TGI (CAKI-1 renal): 8.84 µM
TGI (NCI/ADR-RES ovarian): 20.1 µM
TGI (OVCAR-3 ovarian): 6.1 µM

Cc1ccc(/C=C(\C#N)n2nnc3cc(F)c(F)cc32)cc1
GI50 (UO-31 renal): 2.8 µM
TGI (UO-31 renal): 14.2 µM
GI50 (HCT-116 colon): 1.69 µM
TGI (HCT-116 colon): 7.79 µM
GI50 (MALME-3M melanoma): 15.9 µM
TGI (MALME-3M melanoma): 56.7 µM
GI50 (K-562 leukemia): 0.445 µM
TGI (K-562 leukemia): > 100 µM
GI50 (COLO 205 colon): 1.82 µM
TGI (COLO 205 colon): 3.76 µM
GI50 (SR leukemia): 0.391 µM
TGI (SR leukemia): 13.9 µM
GI50 (NCI-H226 lung): 6.45 µM
TGI (NCI-H226 lung): 63.2 µM
GI50 (CAKI-1 renal): 1.77 µM
TGI (CAKI-1 renal): 19.1 µM
GI50 (NCI/ADR-RES ovarian): 2.53 µM
TGI (NCI/ADR-RES ovarian): > 100 µM
GI50 (OVCAR-3 ovarian): 1.47 µM
TGI (OVCAR-3 ovarian): 6.08 µM

CCCNc1nc(-c2ccc(OC)cc2)nc2ccccc12
GI50 (UO-31 renal): 19.1 µM
TGI (UO-31 renal): > 100 µM
GI50 (HCT-116 colon): 6.85 µM
TGI (HCT-116 colon): 27.7 µM
GI50 (MALME-3M melanoma): 15.1 µM
TGI (MALME-3M melanoma): 29.3 µM
GI50 (K-562 leukemia): > 100 µM
TGI (K-562 leukemia): > 100 µM
GI50 (COLO 205 colon): 19.9 µM
TGI (COLO 205 colon): > 100 µM
GI50 (SR leukemia): 13.8 µM
TGI (SR leukemia): > 100 µM
GI50 (NCI-H226 lung): 16.1 µM
TGI (NCI-H226 lung): 41.9 µM
GI50 (CAKI-1 renal): 13.3 µM
TGI (CAKI-1 renal): 27.9 µM
GI50 (NCI/ADR-RES ovarian): 11 µM
TGI (NCI/ADR-RES ovarian): 36.2 µM
GI50 (OVCAR-3 ovarian): 11.8 µM
TGI (OVCAR-3 ovarian): 26.9 µM
